Source: patent US20240279202A1 (NURIX THERAPEUTICS, INC., priority 2021, published 2024)

Target: T1, ITK (Homo sapiens, UniProt Q08881)
T1 sequence (Q08881 1-620): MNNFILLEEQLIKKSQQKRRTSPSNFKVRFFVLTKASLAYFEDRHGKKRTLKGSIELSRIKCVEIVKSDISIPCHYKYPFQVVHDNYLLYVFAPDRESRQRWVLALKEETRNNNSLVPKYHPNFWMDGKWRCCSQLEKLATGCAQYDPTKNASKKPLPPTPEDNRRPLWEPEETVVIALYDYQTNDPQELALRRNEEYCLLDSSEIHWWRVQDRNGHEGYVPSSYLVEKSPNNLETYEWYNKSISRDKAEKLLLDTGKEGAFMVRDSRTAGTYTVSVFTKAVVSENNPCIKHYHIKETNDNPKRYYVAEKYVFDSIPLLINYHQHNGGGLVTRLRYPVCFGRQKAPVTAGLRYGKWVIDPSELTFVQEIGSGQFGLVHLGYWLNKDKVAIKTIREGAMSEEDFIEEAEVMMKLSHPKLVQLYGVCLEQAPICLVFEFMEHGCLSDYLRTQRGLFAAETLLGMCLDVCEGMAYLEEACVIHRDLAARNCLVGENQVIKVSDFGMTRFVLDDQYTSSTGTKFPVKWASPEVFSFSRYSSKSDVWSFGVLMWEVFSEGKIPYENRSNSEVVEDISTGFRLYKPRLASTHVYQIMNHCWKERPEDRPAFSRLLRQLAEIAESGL
Assay: ITK degradation HiBiT assay
Format: cell-based
Parameters: expressed in transfected cells; host or cells: Molt4 (ATCC CRL-1552), monoclonal clone 1C10, engineered to carry the HiBiT tag
Details: 4 hrs; for DC50: C-terminal HiBiT-tagged Molt4 cells; for Dmax: MOLT-4, C-terminal HiBiT-tagged Molt4 cells
Outline: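 C-terminal HiBiT-tagged Molt4 cells (clone 1C10) treated 4 h at 32° C with an 11-point, 5-fold compound dilution series (0.5% DMSO). HiBiT lytic detection with LgBiT then luminescence read; % ITK remaining versus concentration fit by four-parameter variable-slope model to give DC50 and Dmax.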

Row | Structure (SMILES) | DC50 [nM] | Dmax [%]
1 | C[C@@]12Cc3[nH]nc(C(=O)Nc4cnn(C5CCN(CC6CCN(c7ccc(C8CCC(=O)NC8=O)cn7)CC6)CC5)c4)c3C[C@@H]1C2(F)F (mixture of isomers) [Compound 114, (4aS,5aR)-N-(1-{1-[(1-{5-[(3RS)-2,6-dioxopiperidin-3-yl]pyridin-2-yl}piperidin-4-yl)methyl]piperidin-4-yl}-1H-pyrazol-4-yl)-5,5-difluoro-5a-methyl-1H,4H,4aH,5H,5aH,6H-cyclopropa[f]indazole-3-carboxamide] | 0.002 | 87
2 | CC1(C)CCc2c(-c3cc4ccc(C(=O)N5CCN(CC6CCN(c7ccc(C8CCC(=O)NC8=O)cc7F)CC6)CC5)cc4[nH]3)n[nH]c2C1 (stereo not shown) [Compound 222, 3-{4-[4-({4-[2-(6,6-dimethyl-1,4,5,7-tetrahydroindazol-3-yl)-1H-indole-6-carbonyl]piperazin-1-yl}methyl)piperidin-1-yl]-3-fluorophenyl}piperidine-2,6-dione] | 1.42 | 75
3 | C[C@@]12Cc3[nH]nc(C(=O)Nc4cnn(C5CCN(C(=O)C6CCC(Cn7cc8cc(C9CCC(=O)NC9=O)ccc8n7)CC6)CC5)c4)c3C[C@@H]1C2(F)F (mixture of isomers) [Compound 165] |  | 86
4 | C[C@@]12Cc3[nH]nc(-c4cc5cc(F)c(C(=O)N6CCN(CC7CCN(c8ccc(C9CCC(=O)NC9=O)cc8)CC7)CC6)cc5[nH]4)c3C[C@@H]1C2(F)F (stereo partly drawn) [Compound 138, 3-(4-(4-((4-(2-((4aS,5aR)-5,5-difluoro-5a-methyl-1,4,4a,5,5a,6-hexahydrocyclopropa[f]indazol-3-yl)-5-fluoro-1H-indole-6-carbonyl)piperazin-1-yl)methyl)piperidin-1-yl)phenyl)piperidine-2,6-dione] | 0.076 | 83
5 | Cn1c(=O)n(C2CCC(=O)NC2=O)c2cccc(N3CCC(C(=O)N4CCC(n5cc(NC(=O)c6n[nH]c7c6C[C@@H]6C(F)(F)[C@]6(C)C7)cn5)CC4)CC3)c21 (mixture of isomers) [Compound 171] |  | 88
6 | C[C@@]12Cc3[nH]nc(C(=O)Nc4cnn(C5CCC(CN6CCN(c7ccc(C8CCC(=O)NC8=O)cn7)CC6)CC5)c4)c3C[C@@H]1C2(F)F (mixture of isomers) [Compound 125, (4aS,5aR)-5,5-difluoro-5a-methyl-N-{1-[(1rs,4rs)-4-[(4-{5-[(3RS)-2,6-dioxopiperidin-3-yl]pyridin-2-yl}piperazin-1-yl)methyl]cyclohexyl]-1H-pyrazol-4-yl}-1H,4H,4aH,5H,5aH,6H-cyclopropa[f]indazole-3-carboxamide] | 3.3 | 88
7 | C[C@@H]1CN(C(=O)c2ccc3cc(-c4n[nH]c5c4CCC(C)(C)C5)[nH]c3c2)C[C@H](C)N1CC1CCN(c2ccc(C3CCC(=O)NC3=O)cc2)CC1 (stereo partly shown) [Compound 157] |  | 84
8 | C[C@@]12Cc3[nH]nc(C(=O)Nc4cnn([C@@H]5CCN(C[C@H]6CCN(c7ccc(C8CCC(=O)NC8=O)cc7)C6)C[C@H]5F)c4)c3C[C@@H]1C2(F)F (stereo partly drawn) [Compound 99, (4aS,5aR)-N-(1-((3R,4R)-1-(((3R)-1-(4-(2,6-dioxopiperidin-3-yl)phenyl)pyrrolidin-3-yl)methyl)-3-fluoropiperidin-4-yl)-1H-pyrazol-4-yl)-5,5-difluoro-5a-methyl-1,4,4a,5,5a,6-hexahydrocyclopropa[f]indazole-3-carboxamide] | 3.7 | 85
9 | CC1(C)CCc2c(C(=O)Nc3cnn(C4CCN(CC5CCN(c6ccc([C@@H]7CCC(=O)NC7=O)cc6)CC5)CC4)c3)n[nH]c2C1 [Compound 121, N-(1-{1-[(1-{4-[(3S)-2,6-dioxopiperidin-3-yl]phenyl}piperidin-4-yl)methyl]piperidin-4-yl}-1H-pyrazol-4-yl)-6,6-dimethyl-4,5,6,7-tetrahydro-1H-indazole-3-carboxamide] | 2.03 | 76
10 | C[C@@]12Cc3[nH]nc(C(=O)Nc4ccc(C5CCN(CC6CCN(c7ccc(C8CCC(=O)NC8=O)cc7)CC6)CC5)cc4)c3C[C@@H]1C2(F)F (stereo partly drawn) [Compound 108, (4aS,5aR)-N-(4-(1-((1-(4-(2,6-dioxopiperidin-3-yl)phenyl)piperidin-4-yl)methyl)piperidin-4-yl)phenyl)-5,5-difluoro-5a-methyl-1,4,4a,5,5a,6-hexahydrocyclopropa[f]indazole-3-carboxamide] | 1.8 | 88
11 | CN(C(=O)CN1CC2(CCN(c3ccc4c(c3)C(=O)N(C3CCC(=O)NC3=O)C4=O)C2)C1)c1ccc2cc(-c3n[nH]c4c3C[C@@H]3C(F)(F)[C@]3(C)C4)[nH]c2c1 (stereo partly shown) [Compound 71] | 5.2 | 70
12 | C[C@@]12Cc3[nH]nc(C(=O)Nc4cnn(C5CCC(CN6CCC(Oc7ccc(C8CCC(=O)NC8=O)cn7)CC6)CC5)c4)c3C[C@@H]1C2(F)F (stereo partly drawn) [Compound 124, (4aS,5aR)-5,5-difluoro-5a-methyl-N-{1-[(1rs,4rs)-4-{[4-({5-[(3R)-2,6-dioxopiperidin-3-yl]pyridin-2-yl}oxy)piperidin-1-yl]methyl}cyclohexyl]-1H-pyrazol-4-yl}-1H,4H,4aH,5H,5aH,6H-cyclopropa[f]indazole-3-carboxamide] | 3.7 | 90
13 | C[C@@]12Cc3[nH]nc(-c4cc5cc(C(=O)N6CCN(C[C@H]7CCN(c8ccc(C9CCC(=O)NC9=O)cc8)C7)CC6)ccc5[nH]4)c3C[C@@H]1C2(F)F (stereo partly shown) [Compound 147] |  | 81
14 | CC1(C)CCc2c(-c3cc4ccc(C(=O)N5CCC(CC6CCN(c7ccc(C8CCC(=O)NC8=O)cn7)CC6)CC5)cc4[nH]3)n[nH]c2C1 (stereo not shown) [Compound 54, 3-(6-(4-((1-(2-(6,6-dimethyl-4,5,6,7-tetrahydro-1H-indazol-3-yl)-1H-indole-6-carbonyl)piperidin-4-yl)methyl)piperidin-1-yl)pyridin-3-yl)piperidine-2,6-dione] | 11 | 
15 | C[C@@]12Cc3[nH]nc(C(=O)Nc4cnn(C5CCN(CC6(F)CCN(c7ccc(C8CCC(=O)NC8=O)cc7)CC6)CC5)c4)c3C[C@@H]1C2(F)F (stereo partly drawn) [Compound 97, (4aS,5aR)-N-(1-(1-((1-(4-(2,6-dioxopiperidin-3-yl)phenyl)-4-fluoropiperidin-4-yl)methyl)piperidin-4-yl)-1H-pyrazol-4-yl)-5,5-difluoro-5a-methyl-1,4,4a,5,5a,6-hexahydrocyclopropa[f]indazole-3-carboxamide] | 2.6 | 88
16 | CC1(C)CCc2c(-c3cc4cc(F)c(C(=O)N5CCN(CC6CCN(c7ccc(C8CCC(=O)NC8=O)cc7)CC6)CC5)cc4[nH]3)n[nH]c2C1 (stereo not shown) [Compound 137, 3-(4-(4-((4-(2-(6,6-dimethyl-4,5,6,7-tetrahydro-1H-indazol-3-yl)-5-fluoro-1H-indole-6-carbonyl)piperazin-1-yl)methyl)piperidin-1-yl)phenyl)piperidine-2,6-dione] | 4.4 | 81
17 | Cn1c(=O)n(C2CCC(=O)NC2=O)c2cccc(N3CCC(C(=O)N4CC(n5cc(NC(=O)c6n[nH]c7c6C[C@@H]6C(F)(F)[C@]6(C)C7)cn5)C4)CC3)c21 (stereo partly drawn) [Compound 56, (4aS,5aR)-N-(1-(1-(1-(1-(2,6-dioxopiperidin-3-yl)-3-methyl-2-oxo-2,3-dihydro-1H-benzo[d]imidazol-4-yl)piperidine-4-carbonyl)azetidin-3-yl)-1H-pyrazol-4-yl)-5,5-difluoro-5a-methyl-1,4,4a,5,5a,6-hexahydrocyclopropa[f]indazole-3-carboxamide] | 0.013 | 64
18 | C[C@@]12Cc3[nH]nc(C(=O)Nc4cnn(CC5CCN(CC6CCN(C(=O)c7ccc(F)c(N8CCC(=O)NC8=O)c7)CC6)CC5)c4)c3C[C@@H]1C2(F)F [Compound 204] |  | 70
19 | CC1(C)CCc2c(-c3cc4cc(C(=O)N5CCC(CN6CCc7cc(C8CCC(=O)NC8=O)ccc7C6)CC5)ccc4[nH]3)n[nH]c2C1 (stereo not shown) [Compound 194] |  | 64
20 | CC1(C)CCc2c(C(=O)Nc3cnn([C@H]4CC[C@H](C(=O)N5CCN(c6ccc(C7CCC(=O)NC7=O)cc6)CC5)CC4)c3)n[nH]c2C1 (mixture of isomers) [Compound 176] |  | 76
21 | CC1(C)CCc2c(-c3cc4ccc(C(=O)N5CCC(CN6CCN(c7cc(C8CCC(=O)NC8=O)ccn7)CC6)CC5)cc4[nH]3)n[nH]c2C1 (stereo not shown) [Compound 214, 3-{2-[4-({1-[2-(6,6-dimethyl-1,4,5,7-tetrahydroindazol-3-yl)-1H-indole-6-carbonyl]piperidin-4-yl}methyl)piperazin-1-yl]pyridin-4-yl}piperidine-2,6-dione] | 36 | 53
22 | COC[C@@]1(C)CCc2c(-c3cc4ccc(C(=O)N5CCN(CC6CCN(c7ccc(C8CCC(=O)NC8=O)cc7)CC6)CC5)cc4[nH]3)n[nH]c2C1 (stereo partly shown) [Compound 140] |  | 84
23 | C[C@@H]1CN(C(=O)c2ccc3cc(-c4n[nH]c5c4C[C@@H]4C(F)(F)[C@]4(C)C5)[nH]c3c2)C[C@H](C)N1CC1CCN(c2ccc(C3CCC(=O)NC3=O)cc2)CC1 (stereo partly shown) [Compound 158] |  | 88
24 | C[C@@]12Cc3[nH]nc(C(=O)Nc4cnn(C5CCC(C(=O)N6CCN(c7ccc(C8CCC(=O)NC8=O)cc7)CC6)CC5)c4)c3C[C@@H]1C2(F)F (mixture of isomers) [Compound 179] |  | 88
